# Results published in patent US11752196B2, “Treatment of pyroptosis” (priority 2018, dated 2023).
# System: GSDMD cleavage in Huh7 hepatocytes
# Assay: LPS-induced pyroptosis (GSDMD cleavage) in Huh7 hepatocytes pre-treated with tunicamycin and/or very low-dose LPS
# Assay type: cell-based, Human
# Conditions: tunicamycin and/or LPS 1 μg/ml for 24 hours, then LPS 30 μg/ml
# Method: FIG. 13—LPS-dependent pyroptosis in hepatocytes and priming by ER stress.
# All measurements were performed in triplicate.
# In addition to hepatocyte ER stress, increased levels of circulating endotoxin are detected in advanced liver disease. Therefore, to determine the importance of hepatocyte ER stress and low-level endotoxin exposure as mediators of upregulation of the caspase-4/11 pathway, Huh7 hepatocytes were pre-treated with the ER stress inducer, tunicamycin and/or very low-dose LPS (1 μg/ml) for 24 hours, prior to the LPS ‘hit’ (30 μg/ml) (FIG. 13). […] Importantly, in these experiments hepatocyte pyroptosis was independent of the TLR4 pathway, as GSDMD cleavage was not inhibited by the TLR4 antagonist TAK-242. Caspase-11 deficient mice are protected from hepatic and extra-hepatic organ injury in ACLF Casp11^−/− mice are deficient in the caspase-11 pathway, but the caspase-1 pathway remains intact. Casp11^−/− mice develop a similar level of advanced fibrosis/cirrhosis compared to wildtype (wt) after treatment with 20 doses of CCl4 (FIG. 14A).
smiles,measurement,value
CCOC(=O)C1=CCCC[C@H]1S(=O)(=O)Nc1ccc(F)cc1Cl [TAK-242],GSDMD cleavage (inhibition by TLR4 antagonist),not inhibited
